Where two headings read alike, the source gives them in different places.
What was measured:
[1] = system: human MPNST cell line S462; assay: S462 cell viability (CellTiter-Glo, 72 h); assay type: cell-based; conditions: for IC50: read-out: IC50
Description: This similarity, in addition to the scaffold's particular sensitivity to modifications around the pyridinyl ring led us to hypothesize that the activity of compounds 1 and 9 may depend on the concentration of Nam in the media. To test this hypothesis, we analyzed the activity of both compounds in media supplemented with increasing concentrations of Nam. […] Given that Nam inhibited compound activity, we considered Nam concentrations in basal culture conditions (DMEM supplemented with 10% fetal bovine serum or FBS) as compared to physiological levels. Nam levels in human serum are estimated to be in the 4 μM range.^5 In contrast, DMEM alone contains […] of Nam and the concentration in 10% FBS is expected to range between 0.574-1.56 μM.^6 To more closely reflect physiologic levels of Nam, we evaluated the activity of these compounds in cells grown in DMEM lacking Nam (Nam-free DMEM), so that the only exogenous Nam derives from 10% FBS. […] These observations indicate that the potency of these compounds is in the nanomolar range when tested in the presence of physiological levels of Nam.
We thus re-assessed the structure activity relationship of compound 21 analogs in Nam-free DMEM supplemented with or without 100 μM Nam (see appendix below: Synthesis, characterization and activity of micromolar and nanomolar active nicotinamide derivatives). […] Particularly notable, even in Nam-depleted conditions, all active analogs retained the same 3-pyridinyl ring as Nam, reinforcing the relationship between structural resemblance to Nam and compound efficacy.
In 96-well assay plates (Corning #2903), 2,000 cells were plated per well in 100 μL of medium and allowed to adhere overnight. The next day, compounds or Nam suspended in DMSO were dispensed to the assayed wells using a D300e Digital Dispenser (Tecan). All wells were normalized to 0.5% DMSO. 72 hours after incubation at 37 °C in 5% CO2, cell viability was assayed using an ATP-based luminescent viability assay, CellTiter-Glo (Promega #G8462). CellTiter-Glo substrate was mixed 1:1 with phosphate-buffered saline (PBS) supplemented with 1% Triton X-100, and 40 μL of this mixture was added to the assay wells. After the plates were shaken on a microplate shaker for 10 minutes at room temperature, luminescence was recorded using a Synergy 2 Microplate Reader or Cytation 5 plate reader (BioTek). In Prism 9 software (GraphPad), ten-point dose response curves were plotted with baseline-correction to the vehicle control well, and IC50 values were calculated by curve fitting using asymmetric (five parameter), least squares fit.

[2] = Mouse pharmacokinetics in plasma and brain; assay type: in vivo, CD1 mice; conditions: for Kp / Cmax: mouse; for Kp: read-out: brain to blood exposure (AUCBrain/AUCplasma)
Protocol: GBM, which is reported to be a potential target for these compounds, is an intracranial tumor, and thus, effective drugs must cross the blood-brain barrier. Therefore, in addition to plasma, we analyzed compound and metabolite levels in mouse brain. Following the administration of a single 5 mg/kg intravenous (IV) injection of either 1 or 9, we quantified the levels of each compound in both plasma and brain. […] The brain to blood exposure, represented by the ratio of the area under the curve between brain and plasma (AUCBrain/AUCplasma), was 3.45 for 1 and 2.85 for 9.
Next, we analyzed the levels of metabolites that result from the metabolism of 1 and 9 through the NAD salvage pathway.
MS conditions were identical. The HPLC conditions were as follows: Solvent A: water including 0.1% formic acid (LC-MS) grade. Solvent B: Acetonitrile including %0.1 formic acid (LC-MS) grade. Gradient condition was 0-3 min: 3% B, 17 min: 60.5% B, 17.1 min Flow to 0.25 mL/min, 17 to 20 min hold 95% B: 20.5-25 min hold 3% B, 24.5 flow to 0.2 mL/min. Total run time: 25 mins.
Data analysis for TOF data was performed using SCIEX MultiQuant software version 3.0.3. For each of the compounds monitored, the theoretical exact m/z was calculated. A range of ±10 ppm was extracted around the theoretical mass and used to create an analytical method in MultiQuant. Extracted areas for parent compounds 1 and 9 in S462 cells and mice were normalized to the internal standard tolbutamide, while parent compounds 1 and 9 in cell-free reactions and all metabolite levels were presented as peak areas without normalization.
Six week old female CD1 mice (Charles River, Wilmington, MA) were dosed with 5 mg/kg 1 or 9 formulated as 5% DMSO/10% PEG400/85% D5W (5% dextrose in water, pH 7.4) in a volume of 0.2 ml/mouse. Animals were euthanized by inhalation overdose of CO2 at various points postdose. Blood was collected by cardiac puncture into K2EDTA tubes and kept on ice until they were spun at 9600×g for 10 min at 4 °C for plasma. Brains were harvested, rinsed briefly with PBS to remove surface adhering blood, weighed and then snap frozen in liquid nitrogen before storing along with plasma at −80 °C until processing. Brains were homogenized in a volume of PBS equal to 3× their weight in g. One hundred microliters of plasma or brain homogenate was mixed with […] of methanol containing 0.15% formic acid and 37.5 ng/ml tolbutamide internal standard. Samples were vortexed for 15 seconds, incubated at RT for 10 min and then spun at 16,100×g. The resulting supernatant was spun a second time and then filtered through 0.2 μm PVDF filters and analyzed by LC-MS. Samples were quantitated in comparison to a standard curve prepared by spiking 1 or 9 into blank plasma or brain homogenate. The limit of quantitation was set as the lowest point on the standard curve that upon back-calculation was within 20% of the nominal value and was at least three-fold above the average peak area observed for blank plasma or brain. The LOQ for 1 was 1 ng/ml in plasma and 5 ng/ml in brain. The LOQ for 9 was 5 ng/ml in plasma and 10 ng/ml for brain homogenate. Brain concentrations were adjusted to ng/g wet tissue weight and then an estimate was made of drug in brain vasculature using the measured plasma concentration and subtracted from the measured brain concentration.^30 Pharmacokinetic parameters were calculated using the noncompartmental analysis tool with sparse sampling in Phoenix WinNonlin (Certara Corp, Princeton, NJ).

[3] = Nam titration experiment, media without added Nam
[4] = S462, commercial DMEM, highest dose tested 50 μM
[5] = addition of 100 μM exogenous Nam
[6] = brain, 5 mg/kg IV single dose, read-out: brain Cmax
[7] = brain, 5 mg/kg IV, assuming brain density of 1 g/ml, read-out: brain Cmax
[8] = plasma, 5 mg/kg IV single dose, molar, read-out: plasma maximum concentration (Cmax)
[9] = plasma, 5 mg/kg IV single dose, read-out: plasma maximum concentration (Cmax)

brain penetration ([2]; 5 mg/kg IV) | Kp ([2]; brain, 5 mg/kg IV) | Cmax [2, 6] [ng/g] | Cmax [2, 7] [µM] | Cmax [2, 8] [µM] | Cmax [2, 9] [ng/mL] | rapidly cleared from plasma by ([2]; plasma, 5 mg/kg IV) [min] | Compound | IC50 [1, 3] [µM] | IC50 [1, 4] [µM] | IC50 [1, 5] [µM] | IC50 ([1]; addition of 1 mM exogenous Nam) [µM] | persistence in brain versus plasma ([2]; 5 mg/kg IV) | also measured
brain-penetrant | 3.45 | 2220 | 10.8 | 5.65 | 1160 | ≤ 90 | O=C(Nc1cccnc1)c1cccs1 [Compound 1, N-(pyridin-3-yl)thiophene-2-carboxamide] | 1.96 | 1.41 | 6.85 | 32.3 | persisted longer in the brain than in the plasma | 
brain-penetrant | 2.85 | 1600 | 7.8 | 23.7 | 4830 | ≤ 90 | O=C(Nc1cccs1)c1cccnc1 [Compound 9, N-(Thiophen-2-yl)nicotinamide] | 0.845 | 1.2 | 4.23 | 35.7 | persisted longer in the brain than in the plasma | toxicity to S462 ([1]; 10% FBS Nam-free DMEM): toxic to S462; rescue by nicotinamide ([1]; 10% FBS Nam-free DMEM, comparison of vacor, 3-AP, tiazofurin and 9): rescued by nicotinamide; IC50 of 9 less than 3-AP ([1]; 10% FBS Nam-free DMEM, versus 3-AP): 1823 fold; IC50 of 9 less than tiazofurin ([1]; 10% FBS Nam-free DMEM, versus tiazofurin): 477 fold; IC50 of 9 less than vacor ([1]; 10% FBS Nam-free DMEM, versus vacor): 206 fold; potency increase in Nam-free DMEM ([1]; Nam-free DMEM versus basal medium): 92 fold; IC50 ([1]; Nam-free DMEM with 10% FBS): 0.00917 µM; IC50 ([1]; Nam-free DMEM, addition of 1.4 μM Nam): 0.0514 µM; IC50 ([1]; Nam-free DMEM, addition of 37 μM Nam): 1.84 µM; average increase in IC50 on NMNAT1 knockout ([1]; S462, three independent NMNAT1 sgRNAs): 28.5 fold
